A melting point compilation (Tetko et al.; mined from patent text by program, amines drawn as free bases though some values may be those of a salt)

Row | melting point | SMILES
1 | 193 °C | CCN(CC)c1ccc(-c2cc(-c3ccc(C(=O)O)cc3)ccc2OCC(C)O)cc1C(C)(C)C (stereo not given)
2 | 122 to 125 °C | COc1c(N2C[C@H]3C(CF)C[C@@]3(N)C2)c(F)cc2c(=O)c(C(=O)O)cn([C@@H]3C[C@@H]3F)c12 (stereo not given in full)
3 | 235 to 236 °C | Nc1nc(N)c(CCCCc2csc(OC(=O)N[C@@H](CCC(=O)O)C(=O)O)c2)c(O)n1
4 | 211 °C | CNc1ccc(Sc2nnnn2C)c2cc(-c3nccs3)[nH]c12
5 | 235 to 236 °C | O=C1CCC(c2ccc(N=C3NCCN3)cc2)=NN1
6 | 188 to 191 °C | CC(C)NC(Nc1cc(C(F)(F)F)cc(C(F)(F)F)c1)=C(C#N)S(C)(=O)=O
7 | 91 to 91.5 °C | COC1=C(OCCCc2ccccc2)c2c(C)ccnc2C(N)([N+](=O)[O-])C1 (stereo not given)
8 | 255 to 257 °C | O=C1NCCc2[nH]c3c(F)cccc3c21
9 | 210 to 213 °C | Cn1ccc2cc(NC(=O)Nc3cncnc3)ccc21
10 | 118 to 120 °C | CCCCc1nc(CCNC(=O)OC(C)(C)C)c[nH]1
11 | > 320 °C | Nc1c(N=O)c(=O)[nH]c(=O)n1Cc1ccc(Cl)cc1
12 | 202 to 208 °C | COc1ccc(CC2SC(=O)NC2=O)c2c1N(Cc1ccc(NC(=O)c3ccc4ccccc4c3)cc1)C(=O)CC2 (stereo not given)
13 | 120 to 124 °C | CCOC(OCC)c1ncn(C(c2ccccc2)(c2ccccc2)c2ccccc2)n1
14 | 181 °C | CCN(CC)c1ccc(N2C[C@H](CNC(=O)c3ccc(Cl)s3)OC2=O)cc1
15 | 160 to 163 °C | Cc1ccc(C(=O)NCC2CCN(C[C@H]3COc4ccc(Cl)cc4O3)CC2)c(N)n1
16 | 132 to 134 °C | COc1cccc(N2CCN(Cc3cn4cc(Cl)ccc4n3)CC2)c1
17 | 119 °C | C=C1CC(C(O)=Nc2cc(Cl)cc(Cl)c2)C1C(=O)O (stereo not given)
18 | 153 to 155 °C | NCCCCC1Cc2ccc(C3=NNC(=O)CC3)cc2C1 (stereo not given)
19 | 101 to 103 °C | CCNC(=O)c1c(Cl)cc(Cl)cc1[Si](C)(C)C
20 | 71 to 73 °C | COc1ccc2c(c1)C(=O)C(Cc1nccs1)CO2 (stereo not given)
21 | 82 °C | CC(C)OC(=Cn1cnnn1)c1ccc(Cl)cc1Cl
22 | 125 to 126 °C | CN1C=NC(Cc2ccccc2)(Cc2ccccc2)C1=O

Row | melting point | SMILES
23 | 31 to 33 °C | C#CCNC(=O)C(F)(F)F
24 | 245 to 247 °C | O=C1CN(Cc2ccc(COc3cccc4c3CN(C3CCC(=O)NC3=O)C4=O)cc2)CCN1 (stereo not given)
25 | 141 to 144 °C | CC(COc1ccc(-c2ccc(C#N)cc2)cc1)N(O)C=O (stereo not given)
26 | 66 to 68 °C | C#CC1(OC(=O)c2ccccc2)C(COC(=O)c2ccc(Cl)cc2)OC(OC(=O)c2ccccc2)C1OC(=O)c1ccccc1 (stereo not given)
27 | 229 to 231 °C | CCCCc1nc2ccccc2n1Cc1ccc(C(=O)O)cc1
28 | 172 to 173 °C | C(#Cc1ccc(-c2nc3ccccc3s2)cc1)c1ccccc1
29 | 184 °C | CNC(=O)c1cccc(Nc2nc(Nc3ccc4c(c3)C(C)(C)CCC(=O)N4)ncc2Cl)c1
30 | 183 to 185 °C | CCCCCCC(C(=O)O)c1ccc(NC(=O)C2(O)c3ccccc3-c3ccccc32)cc1 (stereo not given)
31 | 111 to 114 °C | CC1(C)Oc2ccc(C#N)cc2[C@@H](OC2=CC(=O)OC2)[C@@H]1O (relative stereo)
32 | 193 °C | Cc1ccc(S(=O)(=O)N2CCN(c3ccc(O)cc3)CC2)cc1
33 | 202 to 204 °C | CCN(CC)CCNc1ccc(NCCN(CC)CC)c2c1C(=O)c1c(O)ccc(O)c1C2=O
34 | 126 °C | COc1ccc(OC)c2c1CC(O)CC2O (stereo not given)
35 | 180 to 181 °C | CCOC(=O)CCc1ccc(N[C@@H](CCC(N)=O)C(=O)O)cc1
36 | 79 to 82 °C | O=C(O)CCCC=C1SC[C@H]2[C@@H]1N(Cc1ccccc1)C(=O)N2Cc1ccccc1
37 | 134 to 135 °C | COc1ccc(C2=NN(c3ccccc3)C(=O)[C@H]3CC=CC[C@@H]23)cc1OC (relative stereo)
38 | 140 to 142 °C | CCC(CC)n1nnc2c(Nc3c(C)cc(C)cc3C)nc(C)cc21
39 | 255 to 256 °C | CS(=O)C1C=Nc2cc(Br)ccc2C1=O (stereo not given)
40 | 143 to 145 °C | CC(C)(C)c1cc(-c2nn(Cc3ccc([N+](=O)[O-])cc3)c3ncccc23)cc(C(C)(C)C)c1O
41 | 38 to 39 °C | CCCCCCC(CCC)OC1(C(C)=O)C=CC=CC1 (stereo not given)
42 | 133 to 134 °C | Cc1c(C)c2c(c(C)c1NC(=O)NCCN(C)C)C(c1ccc(C(C)C)cc1)CO2 (stereo not given)
43 | 235 to 236 °C | CCOC(=O)c1ccc(CCN2CCN(CCCS(=O)(=O)O)CC2)cc1
44 | 141 to 142 °C | CC(=O)Oc1c(C)nc(N)nc1C(C)C

Row | melting point | SMILES
45 | 117 to 119 °C | COc1ccc(C(=O)NCCCN(CCCNC(=O)c2ccc(OC)cc2)C(=O)c2ccc(OC)cc2)cc1
46 | 223 to 225 °C | CC(C)c1cc2c(c(C(C)C)c1)Oc1ccc(C(N)=O)cc1N(CCN(C)C)C2=O
47 | 167 °C | CCOC(=O)c1c(SC)n(-c2ccc(F)cc2)c2cc(F)c(F)cc2c1=O
48 | 138 to 139 °C | O=Cc1cccc(C(CC2=NCCN2)c2ccccn2)c1 (stereo not given)
49 | 107 to 109 °C | CC(C)C[C@H](NC(=O)OC(C)(C)C)[C@@H](O)CC(=O)NN1CCN(c2cccc(C(F)(F)F)c2)CC1
50 | 136 to 137 °C | CC(C(=O)O)(c1ccccc1)c1ccc(O)cc1 (stereo not given)
51 | 209 to 210 °C | NS(=O)(=O)c1cnc(-c2ccccc2)s1
52 | 150 to 151 °C | COc1cc(P(c2ccccc2)c2ccccc2)c(Br)c(OC)n1
53 | 195 °C | Cc1c(C(=O)Nc2ccc(N3CCC(N4CCOCC4)CC3)c(C#N)c2)cnn1CCc1ccccc1
54 | 186 to 189 °C | CCCCCOC(=O)C1=C(C)NC(C)=C(C(=O)NC(C)C)C1c1ccccc1[N+](=O)[O-] (stereo not given)
55 | 105 to 107 °C | N#CCS(=O)(=O)C=C1N(CCCN2CCCCC2)CCN1CCCN1CCCCC1
56 | 143 to 145 °C | COC(=O)c1ccc(Cc2cn(C(C)C)c3ccc(C=C(C)C(=O)O)cc23)c(OC)c1
57 | 88 to 90 °C | O=C(NCC(Cc1ccccc1)C(=O)Nc1n[nH]c(=S)s1)OCc1ccccc1 (stereo not given)
58 | 218 to 219 °C | CCNc1nc(-c2ccc(F)cc2)c(-c2ccc(S(C)(=O)=O)cc2)s1
59 | 106 °C | COC(=O)c1ccc(/C=C(\C)c2ccc3c(c2)CCCCN3C)cc1
60 | 173 to 175 °C | O=C1Cc2ccccc2SN(CCO)C1
61 | 144 to 146 °C | COc1c(S(N)(=O)=O)c(C)nn1C
62 | 91.2 to 92 °C | COCOc1cc(OCOC)c(C(=O)C=Cc2cc(OC)c(OCOC)c(OC)c2)c(O)c1CC=C(C)C
63 | 114 to 116 °C | CC(=O)Nc1cc(Br)sc1Br
64 | 202 to 205 °C | Cc1cc(-c2coc3c(-c4ccc(F)cc4)c(-c4ccc(S(C)(=O)=O)cc4)nn23)ccc1Cl
65 | 54 to 57 °C | COc1cc(C(C)C(=O)NCC(COC(=O)C(C)(C)C)Cc2ccc(C(C)(C)C)cc2)ccc1NS(C)(=O)=O (stereo not given)
66 | 70 to 72 °C | CN(C)C(=O)CC(c1ccc(OC(F)F)c(OCC2CC2)c1)N1Cc2cccc(N)c2C1=O (stereo not given)

Row | SMILES | melting point
67 | O=C(NC(CC12CC3CC(CC(C3)C1)C2)NC(=N[N+](=O)[O-])Nc1cccnc1)c1ccc(Cl)cc1 (stereo not given) | 219 to 220 °C
68 | CC12CCC(O)CC1CCC1C2CCC2(C)C(=O)CCC12O (stereo not given) | 214 to 217 °C
69 | N#Cc1ccc(N2C(=O)NC3(CCS(=O)CC3)C2=O)cc1C(F)(F)F (stereo not given) | 260 to 277 °C
70 | CC1CC2C3CCC4=CC(=O)CCC4=C3CCC2(C)C1O (stereo not given) | 146 to 148 °C
